Here are results for 40 molecules from patent US10214544B2, “Imidazopyridazine and imidazothiadiazole compounds” (Universite de Montreal, priority 2015, dated 2019).

Chain of PAR4 (Q96RI0 18-385): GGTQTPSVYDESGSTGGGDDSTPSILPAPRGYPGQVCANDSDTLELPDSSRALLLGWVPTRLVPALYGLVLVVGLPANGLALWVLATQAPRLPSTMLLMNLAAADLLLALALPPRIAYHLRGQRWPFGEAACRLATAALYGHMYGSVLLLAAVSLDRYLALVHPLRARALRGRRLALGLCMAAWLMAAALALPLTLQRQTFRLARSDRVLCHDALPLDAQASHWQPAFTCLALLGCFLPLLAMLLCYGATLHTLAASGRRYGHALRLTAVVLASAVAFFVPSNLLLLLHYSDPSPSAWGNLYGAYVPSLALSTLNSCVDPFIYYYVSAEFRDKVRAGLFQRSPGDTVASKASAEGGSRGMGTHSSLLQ

For the test, the target named is PAR4 (Homo sapiens (Human), UniProt Q96RI0). The test can be described thus: FLIPR assay in PAR4-expressing HEK293 cells (PAR4 antagonist activity). The class given is cell-based. The following applies: inhibition of H-Ala-Phe(4-F)-Pro-Gly-Trp-Leu-Val-Lys-Asn-Gly-NH2-induced intracellular calcium mobilization. An excerpt:
The FLIPR assay is an exemplary in vitro assay for measuring the activity of the PAR4 antagonists of the present invention. In this assay, intracellular calcium mobilization is induced in PAR4 expressing cells by a PAR4 agonist and calcium mobilization is monitored. See, e.g., Example A.
HEK293 cells stably expressing PAR4 were generated by a standard method of transfection of human PAR4 (F2R23) cDNA expression vector and selected based on PAR4 protein expression or mRNA expression. […] These cells also express endogenous PAR1 and can elicit calcium signal upon stimulation with PAR1 agonist peptide. Therefore, the same cells were also used to determine selectivity against PAR1 and agonist activity for both receptors. Cells from HEK293 PAR4 Clone 1.2A (BMS Arctic ID 383940) were propagated and used for calcium mobilization studies.
FLIPR-based calcium mobilization assay in HEK293 cells was used to measure PAR4 antagonism, agonism, and selectivity against PAR1. The activity of the PAR4 antagonists of the present invention were tested in PAR4 expressing cells by monitoring H-Ala-Phe(4-F)-[…]NH2-induced intracellular calcium mobilization. Counter screens for agonist activity and PAR1 antagonist activity were also performed. Briefly, PAR1/PAR4-expressing HEK293 cells were grown in DMEM (Life Technology, Grand Island, N.Y.) containing 10% heat-inactivated FBS, 1% Penicillin-Streptomycin, 10 μg/mL blasticidin, and 100 μg/mL Zeocin at 37° C. with 5% CO2. Cells were plated overnight prior to the experiment in a black 384-well Purecoat Amine clear bottom plate (Becton Dickinson Biosciences, San Jose, Calif.) at 10,000 cells/well in 30 μL growth medium and incubated in a humidified chamber at 37° C. with 5% CO2 overnight. Prior to compound addition, the cell medium was replaced with […] of 1× calcium and magnesium-containing Hank's Balanced Saline Solution (HBSS) (with 20 mM HEPES) and 1:1000 diluted fluorescent calcium indicator (Codex Biosolutions, Gaithersburg, Md.). After a 30 minute incubation period at 37° C. and a further 30 minute incubation and equilibration period at room temperature, 20 μL test compound (diluted in 1× HBSS buffer) was added at various concentrations at 0.17% dimethyl sulfoxide (DMSO) final concentration. Changes in fluorescence intensity were measured using a Functional Drug Screening System (FDSS, Hamamatsu, Japan) to determine agonist activities. The cells were then incubated for 30 minutes at room temperature followed by addition of 20 μL of agonist peptide for antagonist activity measurement. […] Compound potency was derived from 11-point concentration-response curves.
The following Table sets out results obtained employing various compounds of the invention tested in the FLIPR assay. As indicated above, the FLIPR assay, an in vitro assay, measures the PAR4 antagonist activity of compounds tested as described in Example A.
(Calcium flux is commonly read through the fluorescence of an indicator in the cells.)
What is called EC50 is the concentration that produces a half-maximal response. On to `COc1cc(OCc2cccc(NC(=O)c3cccc(N(C)C)c3)c2)c2cc(-c3cn4nc(OC)sc4n3)oc2c1` [Example 144], for which the EC50 turned out to be 3.8 nM.
In the case of `COc1cc(OCc2ccc3c(c2)N(C(=O)c2csc(C(F)(F)F)n2)CC3)c2cc(-c3cn4nc(OC)sc4n3)oc2c1` [Example 110] it was 0.52 nM.
In the case of `COc1cc(OCc2cccc(NC(=O)c3cc(C(F)(F)F)ccc3C(F)(F)F)c2)c2cc(-c3cn4nc(OC)sc4n3)oc2c1` [Example 9] it was 2 nM.
The result for `COc1cc(OCc2cccc(NC(=O)c3csc(-c4ccccc4)n3)c2)c2cc(-c3cn4nc(OC)sc4n3)oc2c1` [Example 72] reads 2.2 nM; that for `COc1cc(OCc2cccc(NC(=O)c3cnccn3)c2)c2cc(-c3cn4nc(OC)sc4n3)oc2c1` [Example 133], 2.7 nM; that for `COc1cc(OCc2cccc(NC(=O)c3cccc(OC(F)(F)F)c3)c2)c2cc(-c3cn4nc(OC)sc4n3)oc2c1` [Example 6, N-(3-(((6-methoxy-2-(2-methoxyimidazo[2,1-b][1,3,4]thiadiazol-6-yl)benzofuran-4-yl)oxy)methyl)phenyl)-3-(trifluoromethoxy)benzamide], 1.4 nM.
Regarding `COc1cc(OCc2cccc(N(C)S(=O)(=O)c3ccccc3)c2)c2cc(-c3cn4nc(OC)sc4n3)oc2c1` [Example 91], the EC50 was determined as 2 nM.
Turning to `COc1cc(OCc2cccc(NC(=O)c3cccnc3F)c2)c2cc(-c3cn4nc(OC)sc4n3)oc2c1` [Example 61], the EC50 amounted to 1.5 nM.
In the case of `COc1cc(OCc2cccc(N(C)C(=O)c3sc(C)nc3C)c2)c2cc(-c3cn4nc(OC)sc4n3)oc2c1` [Example 93] it was 4.8 nM; in that of `COc1cc(OCc2cccc(NC(=O)c3cccc(-c4ccccc4)c3)c2)c2cc(-c3cn4nc(OC)sc4n3)oc2c1` [Example 158], 12 nM.
Turning to `COc1cc(OCc2cccc(NC(=O)c3ccc(F)c(F)c3F)c2)c2cc(-c3cn4nc(OC)sc4n3)oc2c1` [Example 14], the EC50 worked out at 1.4 nM.
As for `COc1cc(OCc2cccc(NC(=O)c3ccc(F)cc3)c2)c2cc(-c3cn4nc(OC)sc4n3)oc2c1` [Example 2, 4-Fluoro-N-(3-(((6-methoxy-2-(2-methoxyimidazo[2,1-b][1,3,4]thiadiazol-6-yl)benzofuran-4-yl)oxy)methyl)phenyl)benzamide], the EC50 is 1 nM.
The result for `COc1cc(OCc2cccc(NC(=O)C(C)(C)Oc3ccccc3)c2)c2cc(-c3cn4nc(OC)sc4n3)oc2c1` [Example 40] reads 1.4 nM; that for `COc1cc(OC(F)F)cc(C(=O)Nc2cccc(COc3cc(OC)cc4oc(-c5cn6nc(OC)sc6n5)cc34)c2)c1` [Example 78], 2.3 nM; that for `COc1nn2cc(-c3cc4c(OCc5cccc(NC(=O)c6ccccc6)c5)cccc4o3)nc2s1` [Example 52], 0.41 nM.
In the case of `COc1cc(OCc2cccc(N(C)C(=O)OC(C)(C)C)c2)c2cc(-c3cn4nc(OC)sc4n3)oc2c1` [Example 81, tert-Butyl (3-(((6-methoxy-2-(2-methoxyimidazo[2,1-b][1,3,4]thiadiazol-6-yl)benzofuran-4-yl)oxy)methyl)phenyl)(methyl)carbamate] it was 4.8 nM; in that of `COc1cc(OCc2cccc(NC(=O)c3ccc(OC(F)F)cc3)c2)c2cc(-c3cn4nc(OC)sc4n3)oc2c1` [Example 164], 2 nM.
On to `COc1cc(OCc2cccc(NC(=O)c3cn4nc(C(C)(F)F)sc4n3)c2)c2cc(-c3cn4nc(OC)sc4n3)oc2c1` [Example 68], for which the concentration for a half-maximal effect (EC50) worked out at 8.9 nM.
On to `COc1cc(OCc2cccc(NC(=O)c3ccc(C)c(F)c3)c2)c2cc(-c3cn4nc(OC)sc4n3)oc2c1` [Example 163], for which the EC50 turned out to be 2.1 nM.
On to `COc1cc(OCc2cccc(NC(=O)c3ccnc(O)c3)c2)c2cc(-c3cn4nc(OC)sc4n3)oc2c1` [Example 56], for which the EC50 worked out at 5.5 nM.
For the molecule `COc1cc(OCc2cccc(NC(=O)c3cccc(F)c3)c2)c2cc(-c3cn4nc(OC)sc4n3)oc2c1` [Example 28], the half-maximal effective concentration (EC50) is 2 nM.
In the case of `COc1cc(OCc2cccc(NC(=O)c3cc(Cl)cc(Cl)c3)c2)c2cc(-c3cn4nc(OC)sc4n3)oc2c1` [Example 19] it was 3.3 nM; in that of `COc1cc(OCc2cccc(N(C)C(C)=O)c2)c2cc(-c3cn4nc(OC)sc4n3)oc2c1` [Example 94], 3.8 nM.
For the molecule `COc1cc(OCc2cccc(NC(=O)c3cc(C(F)(F)F)ccc3F)c2)c2cc(-c3cn4nc(OC)sc4n3)oc2c1` [Example 140], the EC50 stood at 1.5 nM.
Regarding `COc1cc(OCc2cccc(NC(=O)c3c(F)cccc3C(F)(F)F)c2)c2cc(-c3cn4nc(OC)sc4n3)oc2c1` [Example 147], the concentration giving a half-maximal response (EC50) worked out at 1.6 nM.
On to `COc1cc(OCc2cccc(N(C)C(=O)c3ccccc3)c2)c2cc(-c3cn4nc(OC)sc4n3)oc2c1` [Example 83, N-(3-(((6-methoxy-2-(2-methoxyimidazo[2,1-b][1,3,4]thiadiazol-6-yl)benzofuran-4-yl)oxy)methyl)phenyl)-N-methylbenzamide], for which the concentration for a half-maximal effect (EC50) came to 4.1 nM.
In the case of `COc1cc(OCc2cccc(NC(=O)c3cc(F)cc(C(F)(F)F)c3)c2)c2cc(-c3cn4nc(OC)sc4n3)oc2c1` [Example 142] it was 1.3 nM.
The result for `COc1cc(OCc2cccc(NC(=O)c3cc(F)ccc3F)c2)c2cc(-c3cn4nc(OC)sc4n3)oc2c1` [Example 154] reads 2.2 nM.
In the case of `COc1cc(OCc2ccc3c(c2)N(C(=O)c2ccccc2F)CC3)c2cc(-c3cn4nc(OC)sc4n3)oc2c1` [Example 104] it was 2.2 nM; in that of `COc1cc(OCc2cccc(N(C)C(=O)c3ccc(OC)nc3)c2)c2cc(-c3cn4nc(OC)sc4n3)oc2c1` [Example 90], 1.1 nM; in that of `COc1cc(OC)cc(C(=O)Nc2cccc(COc3cc(OC)cc4oc(-c5cn6nc(OC)sc6n5)cc34)c2)c1` [Example 137], 3.4 nM.
Take `COc1cc(OCc2cccc3c2CCN3C(=O)c2ccc(OC)nc2)c2cc(-c3cn4nc(OC)sc4n3)oc2c1` [Example 127]: the half-maximal effective concentration (EC50) was 2.9 nM.
With `COc1cc(OCc2cccc3c2CCN3C(=O)c2cc(C)cc(C(F)(F)F)c2)c2cc(-c3cn4nc(OC)sc4n3)oc2c1` [Example 125], the concentration giving a half-maximal response (EC50) was 3.9 nM.
For `COc1ccc(C(=O)Nc2cccc(COc3cc(OC)cc4oc(-c5cn6nc(OC)sc6n5)cc34)c2)c(OC)c1` [Example 42], the EC50 amounted to 2.3 nM.
Turning to `COc1cc(OCc2cccc(NC(=O)c3cnoc3-c3ccccc3)c2)c2cc(-c3cn4nc(OC)sc4n3)oc2c1` [Example 60], the EC50 was found to be 2.9 nM.
Turning to `COc1cc(OCc2cccc3c2CCN3C(=O)c2cccc(F)c2)c2cc(-c3cn4nc(OC)sc4n3)oc2c1` [Example 121], the 50% effective concentration (EC50) is 140 nM.
In the case of `COc1cc(OCc2cccc(NC(=O)c3ccc(F)cc3C(F)(F)F)c2)c2cc(-c3cn4nc(OC)sc4n3)oc2c1` [Example 141] it was 1.9 nM; in that of `COc1cc(OCc2cccc(NC(=O)c3ccc(Cl)cc3)c2)c2cc(-c3cn4nc(OC)sc4n3)oc2c1` [Example 5, 4-Chloro-N-(3-(((6-methoxy-2-(2-methoxyimidazo[2,1-b][1,3,4]thiadiazol-6-yl)benzofuran-4-yl)oxy)methyl)phenyl)benzamide], 1.3 nM; in that of `COc1cc(OCc2cccc(NC(=O)c3ccc(C(F)(F)F)cc3)c2)c2cc(-c3cn4nc(OC)sc4n3)oc2c1` [Example 153], 0.99 nM.
In the case of `COc1cc(OCc2cccc(NC(=O)c3ccc(OC)c(C(F)(F)F)c3)c2)c2cc(-c3cn4nc(OC)sc4n3)oc2c1` [Example 157] it was 2.8 nM.
